As usually defined, the inhibition is the relative decrease from the control value, in per cent. A lower inhibition goes with a response near the control. Usually fold induction stands for the ratio of treated to control signal. Read a low fold induction as a weak induction.

Here are results for one compound from patent publication US20120035161A1, “Novel Compositions and Methods of Treating Diseases Using the Same” (CORRIDOR PHARMACEUTICALS, INC., priority 2006, published 2012).

The target in data set [1] is T1, Serotonin (5-Hydroxytryptamine) 5-HT1A (Homo sapiens, UniProt P08908).
T1 construct: expressed in transfected cells; host or cells: CHO cells
T1 sequence (P08908 1-422): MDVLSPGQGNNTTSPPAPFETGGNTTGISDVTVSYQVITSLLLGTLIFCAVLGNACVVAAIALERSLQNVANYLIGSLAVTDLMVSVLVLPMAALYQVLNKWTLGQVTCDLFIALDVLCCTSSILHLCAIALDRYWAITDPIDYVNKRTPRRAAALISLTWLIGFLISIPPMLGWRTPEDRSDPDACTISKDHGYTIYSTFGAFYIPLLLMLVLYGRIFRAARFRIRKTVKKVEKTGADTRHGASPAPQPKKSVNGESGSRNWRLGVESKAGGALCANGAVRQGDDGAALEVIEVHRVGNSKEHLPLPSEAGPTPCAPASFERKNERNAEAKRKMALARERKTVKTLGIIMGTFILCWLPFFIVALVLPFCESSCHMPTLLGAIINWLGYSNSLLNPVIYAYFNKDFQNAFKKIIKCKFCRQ
In words: Radioligand binding, 5-HT1A ([3H] 8-OH-DPAT). As for the experimental part:
(§1) The methods employed in this study have been adapted from the scientific literature to maximize reliability and reproducibility. Reference standards were run as an integral part of each assay to ensure the validity of the results obtained. Assays were performed under conditions as described below. Where presented, IC50 values were determined by a non-linear, least squares regression analysis using the Data Analysis Toolbox (MDL Information Systems, San Leandro, Calif., USA). Where inhibition constants (Ki) are presented, the Ki values were calculated using the equation of Cheng and Prusoff (Cheng, Y., Prusoff, W. H., Biochem. Pharmacol. 22:3099-3108, 1973) using the observed IC50 of the tested compound, the concentration of radioligand employed in the assay, and historical values for the KD of the ligand. Where presented, the Hill coefficient (nu), defining the slope of the competitive binding curve, was calculated using the Data Analysis Toolbox.

In data set [2] the target is T2, Serotonin (5-Hydroxytryptamine) 5-HT1B (Rattus norvegicus, UniProt P28564).
T2 construct: from tissue
Put plainly: Assay 271200 radioligand binding, 5-HT1B. Also noted: species or system Wistar Rat. As for the experimental part: as §1

The nature of data set [3]: Phospholipidosis assay (LipidTox). The note with it: human. It counts as cell-based. The method, then: (§2) More recently, fluorescent dyes have been utilized to assess phospholipidosis in a high throughput manner (Nioi et al., 2007, Toxicol. Sci. 99:162-173). In this assay, HepG2 cells are plated in MEM growth medium and allowed to incubate overnight. Cells are treated with test compounds that have been added to the assay medium (10% fetal bovine serum) containing LipidTox (fluorescent lipophilic dye). After 48 h incubation, cells are fixed and stained with Hoechst. Plates are scanned with an automated fluorescent microscope (Thermo Fisher Cellomics ArrayScan 4.5) and image analysis is used to quantitate cell number and phospholipid accumulation. Compounds are tested in triplicate at multiple concentrations. Three reference compounds, sertraline, perhexyline, and meclizine (high, medium, and low inducers of phospholipidosis, respectively) are included in each assay. The data is expressed as fold induction over background and the % of the positive control (sertraline), which is calculated using the following equation:
(§3) % positive control=100×(RFUcompound−RFUbackground)/(RFUsertaline−RFUbackground),
(§4) where RFU=Relative Fluorescence Unit

For another data set, the system named is HepG2 cells. In words: Phospholipidosis assay (LipidTox). It counts as cell-based. The note with it: human, 48 h. The method, then:
as §2, §3, §4

SMILES strings stand for the structures.

T2 sequence (P28564 whole entry): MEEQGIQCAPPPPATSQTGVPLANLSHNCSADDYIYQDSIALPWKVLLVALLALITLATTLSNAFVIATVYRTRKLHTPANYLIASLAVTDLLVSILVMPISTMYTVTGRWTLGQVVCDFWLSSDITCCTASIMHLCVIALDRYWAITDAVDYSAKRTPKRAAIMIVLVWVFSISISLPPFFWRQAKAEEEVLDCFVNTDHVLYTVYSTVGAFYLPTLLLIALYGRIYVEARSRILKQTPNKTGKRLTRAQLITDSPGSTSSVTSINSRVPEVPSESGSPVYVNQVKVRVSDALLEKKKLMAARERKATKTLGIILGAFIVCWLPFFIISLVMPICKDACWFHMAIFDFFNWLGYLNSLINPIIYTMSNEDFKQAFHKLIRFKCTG

As to `NCC(=O)NCCN1CCN(CCCN2c3ccccc3Sc3ccc(C(F)(F)F)cc32)CC1` [ICI-735], the inhibition at 0.1 µM in data set [1] (0.1 μM) stood at 14%. The inhibition at 10 µM in data set [1] (10 μM) was determined as 89%. The same compound displayed an inhibition at 0.1 µM in data set [2] (0.1 μM) of 13%. The same compound registered an inhibition at 10 µM in data set [2] (10 μM) of 86%. In data set [3], this compound came in with a cytotoxicity at 48 h, 1 µM of 0%; a cytotoxicity at 48 h, 3 µM of 68%; a cytotoxicity at 48 h, 10 µM of 100%; a cytotoxicity at 48 h, 30 µM of 100%. In data set [3], this compound returned a fold induction at 48 h, 1 µM of 23 and a fold induction at 48 h, 3 µM of 6. In the data set on HepG2 cells (1 μM), the “% Positive Control” value worked out at 43%. The “% Positive Control” value with HepG2 cells (3 μM) is 10%.
